Measured values from patent US12453712B2, “Antitumoral use of cabazitaxel” (Sanofi Mature IP, priority 2009, dated 2025).
Read-outs that look alike come from different tables or passages of the source.

Key:
[1] = Same clinical study: adverse reactions, hematologic abnormalities, treatment discontinuation, delays and dose reductions; type: in vivo, human
Description: A clinical study was performed wherein patients received either treatment with cabazitaxel or the reference treatment based on mitoxantrone each combined with prednisone or prednisolone.
More specifically, patients over 18 years of age with metastatic castration resistant metastatic prostate cancer either measurable by RECIST criteria or non-measurable disease with rising PSA levels or appearance of new lesions, ECOG (Eastern Cooperative Oncology Group) performance stage 0-2, and adequate organ function (patients had to have neutrophils >1,500 cells/mm^3, platelets >100,000 cells/mm^3, hemoglobin >10 g/dL, creatinine <1.5×upper limit of normal (ULN), total bilirubin <1×ULN, AST <1.5×ULN, and ALT <1.5×ULN) who had had prior hormone therapy, chemotherapy, and radiotherapy, but had progressive during or after docetaxel treatment (cumulative dose ≥225 mg/m^2) were randomized to 10 mg/day of prednisone with either mitoxantrone 12 mg/m^2 or cabazitaxel 25 mg/m^2, both administered every 3 weeks.
Patients with a history of congestive heart failure, or myocardial infarction within the last 6 months, or patients with uncontrolled cardiac arrhythmias, angina pectoris, and/or hypertension were not included in the study.
720 patients were planned to be included in the clinical study: 360 in each cabazitaxel+prednisone and mitoxantrone+prednisone group. Seven hundred and fifty-five patients (755) (median age 68; 84% white) were actually enrolled, 378 in the cabazitaxel and prednisone/prednisolone group and 377 in the mitoxantrone and prednisone/prednisolone group. The maximal number of treatment cycles was 10 for cabazitaxel and 10 for mitoxantrone. The median number of treatment cycles was 6 for cabazitaxel and 4 for mitoxantrone. The median prior dose of docetaxel treatment was 576 mg/m^2 for the cabazitaxel group and 529 mg/m^2 for the mitoxantrone group. Median follow-up was 12.8 months.

[2] = Population pharmacokinetic analysis in patients; type: in vivo, human; conditions: for Cmax: CV 107%; for half-life: 1-hour intravenous infusion, 3-compartment PK model
Description: A population pharmacokinetic analysis was conducted in 170 patients with solid tumors at doses ranging from 10 to 30 mg/m^2 weekly or every 3 weeks.

[3] = tested on: CYP3A; test: Metabolism of cabazitaxel
Text: Concomitant administration of strong CYP3A inhibitors (for example, ketoconazole, itraconazole, clarithromycin, atazanavir, indinavir, nefazodone, nelfinavir, ritonavir, saquinavir, telithromycin, voriconazole) may increase cabazitaxel concentrations. Therefore co-administration of cabazitaxel with strong CYP3A inhibitors should be avoided. Caution should be exercised with concomitant use of moderate CYP3A inhibitors. One aspect of the invention is a method of treating a patient for prostate cancer comprising determining whether the patient is undergoing treatment with a CYP3A inhibitor, discontinuing treatment with a CYP3A inhibitor, and then administering cabazitaxel to the patient.

[4] = human, in vivo, listed as Cabazitaxel
[5] = percent of patients, laboratory values, cabazitaxel: n = 369, mitoxantrone: n = 370

CO[C@H]1C(=O)[C@]2(C)[C@@H](OC)C[C@H]3OC[C@@]3(OC(C)=O)[C@H]2[C@H](OC(=O)c2ccccc2)[C@]2(O)C[C@H](OC(=O)[C@H](O)[C@@H](NC(=O)OC(C)(C)C)c3ccccc3)C(C)=C1C2(C)C [cabazitaxel, 4α-acetoxy-2α-benzoyloxy-5β,20-epoxy-1β-hydroxy-7β,10β-dimethoxy-9-oxo-11-taxen-13α-yl (2R,3S)-3-tert-butoxycarbonyl-amino-2-hydroxy-3-phenylpropionate]
Rates of febrile neutropenia ([1]; Example 1): 7.5%
Dose reductions, cycles (%) ([1]; human, in vivo): 9.8%
Dose reductions, no. of cycles ([1]; human, in vivo): 221
Treatment delays >9 days, cycles (%) ([1]; human, in vivo): 2.3%
Treatment delays >9 days, no. of cycles ([1]; human, in vivo): 51
Treatment delays ≤9 days, cycles (%) ([1]; human, in vivo): 7%
Treatment delays ≤9 days, no. of cycles ([1]; human, in vivo): 157
Dose reductions, cycles (%) [1, 4]: (9.8) %
Treatment delays >9 days, cycles (%) [1, 4]: (2.3) %
Treatment delays ≤9 days, cycles (%) [1, 4]: (7.0) %
Discontinuation of study treatment for adverse event, (%) ([1]; intention-to-treat): (17.7) %
Discontinuation of study treatment for adverse event, no. ([1]; intention-to-treat, N = 377 mitoxantrone, N = 378 cabazitaxel): 67
most common (≥5%) grade 3-4 adverse reactions ([1]; patients who received cabazitaxel): neutropenia, leukopenia, anemia, febrile neutropenia, diarrhea, fatigue, and asthenia
Abdominal Pain Grade 1-4, (%) ([1]; percent of patients of n = 371): (17%)
Abdominal Pain Grade 3-4, (%) ([1]; percent of patients of n = 371): (2%)
Alopecia Grade 1-4, (%) ([1]; percent of patients of n = 371): (10%)
Anorexia Grade 1-4, (%) ([1]; percent of patients of n = 371): (16%)
Anorexia Grade 3-4, (%) ([1]; percent of patients of n = 371): (<1%)
Arrhythmia Grade 1-4, (%) ([1]; percent of patients of n = 371): (5%)
Arrhythmia Grade 3-4, (%) ([1]; percent of patients of n = 371): (1%)
Arthralgia Grade 1-4, (%) ([1]; percent of patients of n = 371): (11%)
Arthralgia Grade 3-4, (%) ([1]; percent of patients of n = 371): (1%)
Asthenia Grade 1-4, (%) ([1]; percent of patients of n = 371): (20%)
Asthenia Grade 3-4, (%) ([1]; percent of patients of n = 371): (5%)
Back Pain Grade 1-4, (%) ([1]; percent of patients of n = 371): (16%)
Back Pain Grade 3-4, (%) ([1]; percent of patients of n = 371): (4%)
Bone Pain Grade 1-4, (%) ([1]; percent of patients of n = 371): (5%)
Bone Pain Grade 3-4, (%) ([1]; percent of patients of n = 371): (<1%)
Constipation Grade 1-4, (%) ([1]; percent of patients of n = 371): (20%)
Constipation Grade 3-4, (%) ([1]; percent of patients of n = 371): (1%)
Cough Grade 1-4, (%) ([1]; percent of patients of n = 371): (11%)
Dehydration Grade 1-4, (%) ([1]; percent of patients of n = 371): (5%)
Dehydration Grade 3-4, (%) ([1]; percent of patients of n = 371): (2%)
Diarrhea Grade 1-4, (%) ([1]; percent of patients of n = 371): (47%)
Diarrhea Grade 3-4, (%) ([1]; percent of patients of n = 371): (6%)
Dizziness Grade 1-4, (%) ([1]; percent of patients of n = 371): (8%)
Dysgeusia Grade 1-4, (%) ([1]; percent of patients of n = 371): (11%)
Dyspepsia Grade 1-4, (%) ([1]; percent of patients of n = 371): (10%)
Dyspnea Grade 1-4, (%) ([1]; percent of patients of n = 371): (12%)
Dyspnea Grade 3-4, (%) ([1]; percent of patients of n = 371): (1%)
Dysuria Grade 1-4, (%) ([1]; percent of patients of n = 371): (7%)
Fatigue Grade 1-4, (%) ([1]; percent of patients of n = 371): (37%)
Fatigue Grade 3-4, (%) ([1]; percent of patients of n = 371): (5%)
Febrile Neutropenia Grade 1-4, (%) ([1]; percent of patients of n = 371): (7%)
Febrile Neutropenia Grade 3-4, (%) ([1]; percent of patients of n = 371): (7%)
Headache Grade 1-4, (%) ([1]; percent of patients of n = 371): (8%)
Hematuria Grade 1-4, (%) ([1]; percent of patients of n = 371): (17%)
Hematuria Grade 3-4, (%) ([1]; percent of patients of n = 371): (2%)
Hypotension Grade 1-4, (%) ([1]; percent of patients of n = 371): (5%)
Hypotension Grade 3-4, (%) ([1]; percent of patients of n = 371): (<1%)
Mucosal Inflammation Grade 1-4, (%) ([1]; percent of patients of n = 371): (6%)
Mucosal Inflammation Grade 3-4, (%) ([1]; percent of patients of n = 371): (<1%)
Muscle Spasms Grade 1-4, (%) ([1]; percent of patients of n = 371): (7%)
Musculoskeletal Pain Grade 1-4, (%) ([1]; percent of patients of n = 371): (5%)
Musculoskeletal Pain Grade 3-4, (%) ([1]; percent of patients of n = 371): (<1%)
Nausea Grade 1-4, (%) ([1]; percent of patients of n = 371): (34%)
Nausea Grade 3-4, (%) ([1]; percent of patients of n = 371): (2%)
Pain Grade 1-4, (%) ([1]; percent of patients of n = 371): (5%)
Pain Grade 3-4, (%) ([1]; percent of patients of n = 371): (1%)
Pain in Extremity Grade 1-4, (%) ([1]; percent of patients of n = 371): (8%)
Pain in Extremity Grade 3-4, (%) ([1]; percent of patients of n = 371): (2%)
Peripheral Edema Grade 1-4, (%) ([1]; percent of patients of n = 371): (9%)
Peripheral Edema Grade 3-4, (%) ([1]; percent of patients of n = 371): (<1%)
Peripheral Neuropathy Grade 1-4, (%) ([1]; percent of patients of n = 371): (13%)
Peripheral Neuropathy Grade 3-4, (%) ([1]; percent of patients of n = 371): (<1%)
Pneumonia Grade 1-4, (%) ([1]; percent of patients of n = 371): (3%)
Pneumonia Grade 3-4, (%) ([1]; percent of patients of n = 371): (2%)
Pyrexia Grade 1-4, (%) ([1]; percent of patients of n = 371): (12%)
Pyrexia Grade 3-4, (%) ([1]; percent of patients of n = 371): (1%)
Urinary Tract Infection Grade 1-4, (%) ([1]; percent of patients of n = 371): (8%)
Urinary Tract Infection Grade 3-4, (%) ([1]; percent of patients of n = 371): (2%)
Vomiting Grade 1-4, (%) ([1]; percent of patients of n = 371): (22%)
Vomiting Grade 3-4, (%) ([1]; percent of patients of n = 371): (2%)
Weight Decreased Grade 1-4, (%) ([1]; percent of patients of n = 371): (9%)
Anemia Grade 1-4, (%) [1, 5]: (98%)
Anemia Grade 3-4, (%) [1, 5]: (11%)
Leukopenia Grade 1-4, (%) [1, 5]: (96%)
Leukopenia Grade 3-4, (%) [1, 5]: (69%)
Neutropenia Grade 1-4, (%) [1, 5]: (94%)
Neutropenia Grade 3-4, (%) [1, 5]: 81.7%
Thrombocytopenia Grade 1-4, (%) [1, 5]: (48%)
Thrombocytopenia Grade 3-4, (%) [1, 5]: (4%)
Neutropenia Grade 3-4, (%) ([1]; percent of patients, laboratory values, cabazitaxel: n = 369, mitoxantrone: n = 370, listed as Cabazitaxel): (82%)
dose proportionality ([2]; 10 to 30 mg/m^2, patients with advanced solid tumors): No major deviation from the dose proportionality
volume of distribution (Vss) ([2]; at steady state, for a patient with a median BSA of 1.84 m^2): 2,643 L/m^2
plasma clearance ([2]; for a patient with a median BSA of 1.84 m^2): 26.4 L/h/m^2
Tmax ([2]; human, plasma, intravenous, 25 mg/m^2, Cmax reached at the end of the 1-hour infusion): 1 h
Cmax ([2]; human, plasma, intravenous, 25 mg/m^2, amount administered to provide this Cmax, read-out: Cmax): ~226 ng/mL
Vd ([2]; human, plasma, intravenous, at steady state, read-out: volume of distribution (Vss)): 4860 L
half-life ([2]; human, plasma, iv, read-out: α-half-life): 4 min
half-life ([2]; human, plasma, iv, read-out: β-half-life (converted)): 120 min
half-life ([2]; human, plasma, iv, read-out: γ-half-life (converted)): 5700 min
Cmax ([2]; male, human, plasma, 25 mg/m2, intravenous 25 mg/m^2 every 3 weeks, patients with metastatic prostate cancer, read-out: mean Cmax): 226 ng/mL
clearance ([2]; male, human, plasma, intravenous, patients with metastatic prostate cancer, CV 39%): 808 mL/min
AUC ([2]; male, human, plasma, iv, 25 mg/m2, intravenous 25 mg/m^2 every 3 weeks, patients with metastatic prostate cancer, CV 34%): 991 ng·h/mL
effect of prednisone or prednisolone on the pharmacokinetics of cabazitaxel ([2]; prednisone or prednisolone 10 mg daily): does not affect
metabolic pathway [3]: primarily metabolized through CYP3A
